Reference: ChEMBL document CHEMBL4038274, “Design, synthesis and biological evaluation of multifunctional tacrine-curcumin hybrids as new cholinesterase inhibitors with metal ions-chelating and neuroprotective property” (Bioorg Med Chem, 2017)
pIC50: −log10 of the molar value. Calls of active or inactive are those of the source. The rule behind the calls is not given here.

Columns and labels:
[1] = molecular target: Cholinesterase (Equus caballus, UniProt P81908)
Description: Inhibition of equine serum BuChE using butyrylthiocholine iodide as substrate preincubated for 5 mins followed by substrate addition measured at 1 min interval for 3 mins by Ellmans method

[2] = molecular target: Acetylcholinesterase (Torpedo californica, UniProt P04058)
Description: Inhibition of Torpedo californica AChE using acetylthiocholine iodide as substrate preincubated for 5 mins followed by substrate addition measured at 1 min interval for 3 mins by Ellman's method

[3] = Metal chelating activity assessed as compound-Fe2+ complex formation at 25 uM after 30 mins by UV-spectrophotometric analysis; format: functional
[4] = Metal chelating activity assessed as compound-Cu2+ complex formation at 25 uM after 30 mins by UV spectrophotometric analysis; format: functional
[5] = system: PC-12; test: Neuroprotective activity against H202-induced toxicity in rat PC12 cells assessed as increase in cell viability after 24 hrs by MTT assay; format: functional, cell-based
[6] = system: PC-12; test: Neuroprotective activity against Abeta42-induced toxicity in rat PC12 cells assessed as increase in cell viability after 24 hrs by MTT assay; format: functional, cell-based
[7] = system: PC-12; test: Cytotoxicity against rat PC12 cells at 0.1 to 10 uM after 24 hrs by MTT assay; format: cell-based; conditions: pc-12, 24 h
[8] = system: PC-12; test: Neuroprotective activity against H202-induced toxicity in rat PC12 cells assessed as increase in cell viability at 0.1 to 10 uM after 24 hrs by MTT assay; format: functional, cell-based
[9] = system: PC-12; test: Neuroprotective activity against Abeta42-induced toxicity in rat PC12 cells assessed as increase in cell viability at 0.1 to 10 uM after 24 hrs by MTT assay; format: functional, cell-based

Sequence of Acetylcholinesterase (P04058 whole entry): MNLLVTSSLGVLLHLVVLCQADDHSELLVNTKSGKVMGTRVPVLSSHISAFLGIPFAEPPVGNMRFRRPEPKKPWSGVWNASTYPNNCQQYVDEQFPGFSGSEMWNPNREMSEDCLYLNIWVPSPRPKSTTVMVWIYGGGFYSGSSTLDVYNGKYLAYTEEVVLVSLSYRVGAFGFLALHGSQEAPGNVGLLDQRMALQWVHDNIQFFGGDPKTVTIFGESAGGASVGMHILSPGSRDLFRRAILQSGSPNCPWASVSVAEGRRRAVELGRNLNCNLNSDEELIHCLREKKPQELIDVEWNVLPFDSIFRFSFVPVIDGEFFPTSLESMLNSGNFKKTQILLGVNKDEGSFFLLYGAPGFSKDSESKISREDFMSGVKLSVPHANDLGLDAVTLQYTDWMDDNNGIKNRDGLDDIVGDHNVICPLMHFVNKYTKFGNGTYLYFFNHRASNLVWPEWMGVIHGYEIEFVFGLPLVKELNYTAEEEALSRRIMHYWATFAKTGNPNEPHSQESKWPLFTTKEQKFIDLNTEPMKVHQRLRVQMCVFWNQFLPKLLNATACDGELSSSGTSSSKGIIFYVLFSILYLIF
Sequence of Cholinesterase (P81908 whole entry): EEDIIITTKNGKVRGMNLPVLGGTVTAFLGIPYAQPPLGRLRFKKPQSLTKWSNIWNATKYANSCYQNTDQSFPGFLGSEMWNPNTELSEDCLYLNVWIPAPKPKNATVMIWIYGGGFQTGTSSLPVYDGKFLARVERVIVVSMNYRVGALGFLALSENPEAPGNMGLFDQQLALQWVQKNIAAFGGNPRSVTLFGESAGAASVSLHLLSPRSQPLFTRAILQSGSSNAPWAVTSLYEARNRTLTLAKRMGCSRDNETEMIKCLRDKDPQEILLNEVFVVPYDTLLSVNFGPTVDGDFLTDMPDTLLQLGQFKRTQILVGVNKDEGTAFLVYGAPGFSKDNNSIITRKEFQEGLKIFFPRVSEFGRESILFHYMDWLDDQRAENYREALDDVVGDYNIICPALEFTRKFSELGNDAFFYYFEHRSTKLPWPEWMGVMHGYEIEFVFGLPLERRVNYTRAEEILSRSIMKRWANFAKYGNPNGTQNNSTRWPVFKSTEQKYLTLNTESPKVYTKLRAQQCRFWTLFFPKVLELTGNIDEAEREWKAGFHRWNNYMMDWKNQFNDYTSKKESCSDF

`CC(=O)CC(=O)NCCNc1c2c(nc3ccccc13)CCCC2` showed a pIC50 [1] of 6.51 and a pIC50 [2] of 6.34.
In the case of `CC(=O)CC(=O)NCCCCNc1c2c(nc3ccccc13)CCCC2`, the Activity [3] was “Active”, the Activity [4] was “Active” and the pIC50 [1] was 6.80. For the same molecule, the pIC50 [2] was 7.05.
For `COc1cc(CC(C(C)=O)C(=O)NCCCCCCNc2c3c(nc4ccccc24)CCCC3)ccc1O` (stereo not drawn), the Activity [5] was “Dose-dependent effect”, the Activity [3] was “Active” and the Activity [4] was “Active”. The Activity [6] was “Dose-dependent effect”, the Activity [7] was “Non-Toxic” and the pIC50 [1] was 6.66. The pIC50 [2] was 7.10.
For `CC(=O)C(Cc1ccc(O)cc1)C(=O)NCCCNc1c2c(nc3ccccc13)CCCC2` (stereo not drawn), the pIC50 [1] was 6.08 and the pIC50 [2] was 5.06.
Work on `COc1cc(CC(C(C)=O)C(=O)NCCCNc2c3c(nc4ccccc24)CCCC3)ccc1O` (stereo not drawn) yielded a pIC50 [1] of 5.88 and a pIC50 [2] of 5.24.
For `CC(=O)/C(=C\c1ccc(O)cc1)C(=O)NCCCCNc1c2c(nc3ccccc13)CCCC2`, the pIC50 [1] was 5.32 and the pIC50 [2] was 5.42.
Work on `CC(=O)CC(=O)NCCCNc1c2c(nc3ccccc13)CCCC2` yielded a pIC50 [1] of 7.22 and a pIC50 [2] of 6.62.
For `CC(=O)CC(=O)NCCCCCCNc1c2c(nc3ccccc13)CCCC2`, the pIC50 [1] was 6.66 and the pIC50 [2] was 6.24.
Molecule `COc1cc(/C=C(\C(C)=O)C(=O)NCCCNc2c3c(nc4ccccc24)CCCC3)ccc1O` has a pIC50 [1] of 5.73 and a pIC50 [2] of 5.90.
For `CC(=O)/C(=C\c1ccc(O)cc1)C(=O)NCCCCCCNc1c2c(nc3ccccc13)CCCC2`, the pIC50 [1] was 5.65 and the pIC50 [2] was 5.53.
`CC(=O)C(Cc1ccc(O)cc1)C(=O)NCCCCCCNc1c2c(nc3ccccc13)CCCC2` (stereo not drawn) showed a pIC50 [1] of 6.70 and a pIC50 [2] of 6.89.
With `COc1cc(/C=C(\C(C)=O)C(=O)NCCCCCCNc2c3c(nc4ccccc24)CCCC3)ccc1O` the Activity [3] was “Active”, the Activity [4] was “Active” and the pIC50 [1] was 5.82. The pIC50 [2] was 6.54.
`CC(=O)/C(=C\c1ccc(O)cc1)C(=O)NCCCNc1c2c(nc3ccccc13)CCCC2` gave a pIC50 [1] of 5.80 and a pIC50 [2] of 5.02.
With `COc1cc(/C=C(\C(C)=O)C(=O)NCCCCNc2c3c(nc4ccccc24)CCCC3)ccc1O` the pIC50 [1] was 5.68 and the pIC50 [2] was 5.68.
`COc1cc(CC(C(C)=O)C(=O)NCCCCNc2c3c(nc4ccccc24)CCCC3)ccc1O` (stereo not drawn) showed a pIC50 [1] of 5.47 and a pIC50 [2] of 5.43.
With `COc1cc(/C=C/C(=O)CC(=O)/C=C/c2ccc(O)c(OC)c2)ccc1O` the Activity [8] was “Active” and the Activity [9] was “Active”.
Molecule `CC(=O)C(Cc1ccc(O)cc1)C(=O)NCCCCNc1c2c(nc3ccccc13)CCCC2` (stereo not drawn) has a pIC50 [1] of 6.41 and a pIC50 [2] of 5.70.
